In US8987209B2, “N-carboxyalkyl-auristatin and the use thereof” (Seattle Genetics, Inc., priority 2010, dated 2015):
Square brackets hold non-standard residues; d marks the D form. Peptide text beside a SMILES is read from it. * marks the point of attachment. NMeVal(N-(CH2)3COOH) = CC(C)[C@@H](C(=O)*)N(C)CCCC(=O)O; Dolaproine = CO[C@@H]([C@@H]1CCCN1)[C@@H](C)C(=O)O; Dil = CC[C@H](C)[C@H](NC)[C@@H](CC(=O)O)OC; X5 = C[C@@H](N*)[C@@H](O)c1ccccc1; NMeV = CN[C@H](C(=O)O)C(C)C

Tests used:
[1] = test system: HT-29 wt cell line; experiment: Anti-proliferative effect on HT-29 wt cell line (MTT assay); type: cell-based, human; conditions: HT-29 wt cells, incubation 48 to 96 hours, medium with 10% FCS
Experimental: B-2. Determination of Anti-proliferative Effects of HT-29 wt Cell Line:
After 18 hours the seed medium was replaced by a fresh medium with 10% FCS. The treatment started with measuring out the respective test substance. The dose-response curves were determined of the investigative substances with a concentration of 10^−5 M to 10^−14 M (1:10 dilutions). Incubation times of between 48 hours and 96 hours were chosen. The proliferation was detected by means of the MTT assay (ATCC, Manassas, Va., USA, catalogue no. 30-1010K). After completion of selected incubation period the MTT reagent was incubated with the cells for 4 hours before lysis occurred over night by measuring out the detergent. The created stain was detected at 570 nm. The proliferation of the cells, which were treated identically to the other cells but without the test substance, was defined as the 100% value. The data obtained from this test represent triple determinations and at least two experiments had been carried out independently of each other.

[2] = test system: human renal carcinoma cell line 786-0; experiment: Anti-proliferative effect on renal cell carcinoma 786-0 cell line (MTT assay); type: cell-based; conditions: 786-0 cells, incubation 48 to 96 hours, serum free medium or 2% FCS
Experimental: B-1. Determination of Anti-proliferative Effects of Renal Cell Carcinoma 786-0 Cell Line:
A defined number of cells of the human renal carcinoma cell line 786-0 were cultured in a 96 well micro titer plate in rich medium (2500 or 7.000 cells/well) and then incubated over night at 37° C./5% CO2. After 18 hours the seed medium was replaced by a serum free medium or medium with 2% FCS. The treatment began with measuring out the respective test substances in varying concentrations (10^−5 M to 10^−14 M). Incubation times of between 48 hours and 96 hours were chosen. The proliferation was determined by means of the MTT assay (ATCC, Manassas, Va., USA, catalogue no. 30-1010K). After completion of incubation period the MTT reagent was incubated with the cells for 4 hours before lysis occurred over night by measuring out the detergent. The created stain was detected at 570 nm. The proliferation of the cells, which were treated identically to the other cells but without the test substance was defined as the 100% value. The data obtained from this test represent triple determinations and at least two experiments had been carried out independently of each other.

[3] = Cell permeability, flux assay using Caco-2 cells; type: in vitro ADME; conditions: human, basal to apical, 2 hours incubation
Experimental: (§1) B-5. Determination of Cell Permeability:
(§2) The cell permeability of a substance can be analyzed by means of in vitro tests in a flux assay using Caco-2-cells [M. D. Troutman and D. R. Thakker, Pharm. Res. 20 (8), 1210-1224 (2003)]. For this analysis the cells were cultured on 24 membrane filter plates for 15 to 16 days. In order to determine permeation the test substance in question was given either apical (A) to a HEPES buffer or basal (B) on the cells and incubated for 2 hours. The samples were withdrawn after 0 and 2 hours from the cis and trans compartments. The samples were separated by means of HPLC (Agilent 1200, Böblingen, Germany) using reverse-phase columns. The HPLC system was coupled to a triple quadropol mass spectrometer API 4000 (Applied Biosystems Applera, Darmstadt, Germany) via a turbo ion spray. The permeability was evaluated by means of the Papp value which was calculated with the help of the formula published by Schwab et al. [D. Schwab et al., J. Med. Chem. 46, 1716-1725 (2003)]. A substance was classified as active if the ratio of Papp (B-a) to Papp (A-B) was >2 or <0.5.
(§3) The permeability from B to A [Papp^(B-A)] is particularly important for toxophores which are being released intracellular: The lower the permeability the longer the residence time of the substance in the cell after intracellular release and, consequently, the more time available for interaction with the biochemical target (here: tubulin).

[4] = test system: Caco-2-cells; experiment: Cell permeability, flux assay using Caco-2 cells; type: in vitro ADME; conditions: basal to apical, 2 hours incubation
Experimental: as §1, §2, §3

| SMILES | IC50 ([1]; Homo sapiens) | IC50 ([2]; Homo sapiens) | Papp B→A at 2 h [3] | Papp (B-A) [4] | IC50 [1] | IC50 [2] |
| --- | --- | --- | --- | --- | --- | --- |
| CC[C@H](C)[C@@H]([C@@H](CC(=O)N1CCC[C@H]1[C@H](OC)[C@@H](C)C(=O)N[C@@H](Cc1c[nH]c2ccccc12)C(N)=O)OC)N(C)C(=O)[C@@H](NC(=O)[C@H](C(C)C)N(C)CCCC(=O)O)C(C)C [Example 18, N-(3-carboxypropyl)-N-methyl-L-valyl-N-[(3R,4S,5S)-1-{(2S)-2-[(1R,2R)-3-{[(2S)-1-amino-3-(1H-indol-3-yl)-1-oxopropane2-yl]amino}-1-methoxy-2-methyl-3-oxopropyl]pyrrolidin-1-yl}-3-methoxy-5-methyl-1-oxoheptan-4-yl]-N-methyl-L-valinamide] ({NMeVal(N-(CH2)3COOH)}-V[Dil][Dolaproine]W-NH2) | 16 nM | 173 nM | 0.2 ×10⁻⁶ cm/s |  |  |  |
| CC[C@H](C)[C@@H]([C@@H](CC(=O)N1CCC[C@H]1[C@H](OC)[C@@H](C)C(=O)N[C@H](C)[C@@H](O)c1ccccc1)OC)N(C)C(=O)[C@@H](NC(=O)[C@@H](NC)C(C)C)C(C)C [MMAE, monomethylauristatin E, reference compound] (H-[NMeV]V[Dil][Dolaproine]-X5) |  |  |  | 8.9 ×10⁻⁶ cm/s |  |  |
| CC[C@H](C)[C@@H]([C@@H](CC(=O)N1CCC[C@H]1[C@H](OC)[C@@H](C)C(=O)N[C@@H](Cc1ccccc1)C(=O)O)OC)N(C)C(=O)[C@@H](NC(=O)[C@@H](NC)C(C)C)C(C)C [MMAF, Monomethylauristatin F, reference compound] (H-[NMeV]V[Dil][Dolaproine]F-OH) |  |  |  | 7.3 ×10⁻⁶ cm/s | 10 nM | 260 nM |
